The results in this text go back to patent publication US20220119511A1, “COMPOSITIONS AND METHODS FOR TREATMENT OF DIABETES, OBESITY, HYPER-CHOLESTEROLEMIA, AND ATHEROSCLEROSIS BY INHIBITION OF SAM68” (The UAB Research Foundation, priority 2020, published 2022).

Residues, ends and D or L forms follow the SMILES beside them. *: point of attachment. Cbz = O=C(OCc1ccccc1)*

Data set [1] relates to CRTC2. Put plainly: CRTC2 protein levels in primary hepatocytes treated with proteasome or autophagy inhibitors (Western blot). The class given is cell-based, mouse. Conditions: up to 16 h (MG132 20 μM, BZM 100 nM) or up to 8 h (bafilomycin 100 nM). On the procedure: FIGS. 7A-7J show Sam68 binds CRTC2 and inhibits CRTC2 ubiquitination and proteosomal degradation. In FIG. 7A, WT and Sam68^−/− mice were treated with glucagon (30 μg/kg) or PBS for 10 min; then, nuclear and cytoplasmic proteins were isolated from the liver tissue, and Sam68 protein expression was evaluated via Western blot. In FIG. 7B, CRTC2 was immunoprecipitated from WT and Sam68^−/− primary hepatocytes, and then CRTC2, Sam68, and CREB protein was detected in the precipitates via immunoblot. In FIG. 7C, 293T cells were co-transfected with plasmids coding for HA-tagged Sam68 and Flag-tagged CRTC2; 48 h later, CRTC2 was immunoprecipitated from the cells with anti-Flag, and Sam68 was detected in the precipitates by immunoblotting with anti-HA. In FIG. 7D, 293T cells were co-transfected with plasmids coding for Flag-tagged CRTC2 and HA-tagged WT Sam68 or HA-tagged mutations of Sam68 lacking the N-terminal domain (ΔN), the CK domain (ΔCK), proline motifs 3 and 4 (ΔP3-P4), or the C-terminal domain (ΔC); 48 h later, Sam68 and the Sam68 mutants were immunoprecipitated with anti-HA, and CRTC2 was detected in the precipitates by immunoblotting with anti-Flag. […] P62/SQSTM1 and LC3BI/II protein levels were also evaluated to indicate autophagic activity. […]
Background: Immunoblotting shows a protein as a band on a membrane.

Data set [2] concerns the target T1, CRTC2 (CREB-regulated transcriptional coactivator 2), endogenous, in WT mouse primary hepatocytes (mouse, UniProt Q3U182 2-692).
T1 construct: Endogenous protein immunoprecipitated with the CRTC2 antibody (sc-271912); also called endogenous CRTC2
T1 sequence (looked up): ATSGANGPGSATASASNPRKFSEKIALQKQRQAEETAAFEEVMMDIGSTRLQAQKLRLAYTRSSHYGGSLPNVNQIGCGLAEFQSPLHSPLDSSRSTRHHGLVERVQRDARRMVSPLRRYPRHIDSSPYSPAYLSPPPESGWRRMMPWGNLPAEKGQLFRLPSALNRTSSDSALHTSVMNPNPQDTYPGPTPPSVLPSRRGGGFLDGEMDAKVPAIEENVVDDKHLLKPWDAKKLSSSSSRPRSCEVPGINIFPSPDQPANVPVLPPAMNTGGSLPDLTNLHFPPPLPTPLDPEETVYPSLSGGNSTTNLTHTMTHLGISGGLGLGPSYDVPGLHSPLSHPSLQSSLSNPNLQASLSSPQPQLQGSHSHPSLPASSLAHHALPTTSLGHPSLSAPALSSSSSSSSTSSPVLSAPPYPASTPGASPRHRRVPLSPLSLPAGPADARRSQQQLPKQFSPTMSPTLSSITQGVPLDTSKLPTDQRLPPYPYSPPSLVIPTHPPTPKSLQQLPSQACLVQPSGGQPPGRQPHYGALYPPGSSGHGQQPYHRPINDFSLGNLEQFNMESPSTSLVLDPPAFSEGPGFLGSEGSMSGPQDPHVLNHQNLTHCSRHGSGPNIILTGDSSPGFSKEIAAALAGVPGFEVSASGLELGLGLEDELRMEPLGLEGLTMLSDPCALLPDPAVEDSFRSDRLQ
Put plainly: co-IP from mouse primary hepatocytes (FIG. 7B). As to the method: In FIG. 7A, WT and Sam68^{-/-} mice were treated with glucagon (30 μg/kg) or PBS for 10 min; then, nuclear and cytoplasmic proteins were isolated from the liver tissue, and Sam68 protein expression was evaluated via Western blot. In FIG. 7B, CRTC2 was immunoprecipitated from WT and Sam68^{-/-} primary hepatocytes, and then CRTC2, Sam68, and CREB protein was detected in the precipitates via immunoblot. […] In FIG. 7E, WT and Sam68^{-/-} primary hepatocytes were treated with cycloheximide (100 μM) for 0-8 h to block new protein synthesis; then, CRTC2 protein levels were evaluated by Western blot, quantified via Image J software, normalized to β-actin levels, and reported as the proportion of the amount present at 0 h. WT and Sam68^{-/-} primary hepatocytes were treated with cycloheximide and (FIG. 7E) MG132 (20 μM), (FIG. 7F) BZM (100 nM), or (FIG. 7G) bafilomycin (100 nM) for 0-16 (MG132, BZM) or 0-8 (bafilomycin) and CRTC2 protein levels were evaluated by Western blot, quantified via Image J software, normalized to β-actin levels, and reported as the proportion of the amount present in WT cells at 0 h. P62/SQSTM1 and LC3BI/II protein levels were also evaluated to indicate autophagic activity. […]

In the case of `CC(C)C[C@@H](C=O)NC(=O)[C@H](CC(C)C)NC(=O)[C@H](CC(C)C)NC(=O)OCc1ccccc1` [MG132] (Cbz-Leu-Leu-Leu-aldehyde), the “CRTC2 protein levels in Sam68−/− hepatocytes during treatment” value in data set [1] is listed as “approximately doubled”. The same measure, in the same setting: to bafilomycin belongs “unchanged”.

B1: Sam68 (Src-associated-in-mitosis-of-68kDa), endogenous, in WT mouse primary hepatocytes (other, UniProt Q60749 1-443, looked up)
chain: MQRRDDPASRLTRSSGRSCSKDPSGAHPSVRLTPSRPSPLPHRPRGGGGGPRGGARASPATQPPPLLPPSTPGPDATVVGSAPTPLLPPSATAAVKMEPENKYLPELMAEKDSLDPSFTHAMQLLSVEIEKIQKGESKKDDEENYLDLFSHKNMKLKERVLIPVKQYPKFNFVGKILGPQGNTIKRLQEETGAKISVLGKGSMRDKAKEEELRKGGDPKYAHLNMDLHVFIEVFGPPCEAYALMAHAMEEVKKFLVPDMMDDICQEQFLELSYLNGVPEPSRGRGVSVRGRGAAPPPPPVPRGRGVGPPRGALVRGTPVRGSITRGATVTRGVPPPPTVRGAPTPRARTAGIQRIPLPPTPAPETYEDYGYDDTYAEQSYEGYEGYYSQSQGESEYYDYGHGELQDSYEAYGQDDWNGTRPSLKAPPARPVKGAYREHPYGRY
notes: Endogenous protein co-immunoprecipitated from mouse primary hepatocytes; also called KHDRBS1
For B1, in data set [2], the binding result is recorded as “binds”.
